Test results taken from patent US9963726B2, “Fiber-containing carbohydrate composition” (Tate & Lyle Ingredients Americas LLC, priority 2006, dated 2018).
Marks after values point to notes of the source that are not given here.

System: healthy human subjects
Test: Blood glucose response in healthy human subjects
Type: in vivo
Conditions: 10 healthy human subjects
Experimental: Samples containing 25 g (dsb) of the syrup were prepared as follows. 2.838 kg of filtered water was added to a jug containing a pre-weighed quantity of RCS. The lid was placed on the jug, and it was then mixed thoroughly by shaking and swirling until all syrup was dissolved. 12 oz. (350 g) of this solution contained 25 g of the test carbohydrate on a dry solids basis.
The control solution was prepared by mixing 25 g anhydrous glucose with 300 mL of water.
The samples were administered to 10 healthy human subjects. The characteristics of the subjects were: 5 male, 5 female; age, 35±10 y; body mass index, 24.0±3.8 kg/m^2. Each subject undertook nine tests on separate days which included the six test foods and on three occasions the standard glucose drink containing 25 g of available carbohydrate. Blood glucose was measured fasting and at 15, 30, 45, 60, 90 and 120 minutes after eating. Incremental areas under the blood glucose response curves (iAUC) were calculated. Each subject's iAUC after consumption of each test food was expressed as a percentage of the mean iAUC of the three glucose controls taken by the same subject. The incremental areas under the curve and relative glycemic response (RGR) of the products were: […]

SMILES: OC[C@H]1OC(O)[C@H](O)[C@@H](O)[C@@H]1O (some centres unmarked) [Glucose, anhydrous glucose]
- iAUC (incremental area under the blood glucose response curve) (25 g (dsb), blood glucose fasting to 120 minutes): 124.4 ± 13.5^a
- RGR (relative glycemic response) (iAUC as percentage of mean iAUC of the three glucose controls of the same subject): 100^a
